Data as given in patent EP0433457B1, “ANTIPRURITIC COMPOSITION” (SHISEIDO COMPANY LIMITED, priority 1989, dated 1990).
Structures can show the parent of a compound that is named as a salt.

Tests used:
pruritus of bradykinin [1] = assay: Antipruritic effect test, bradykinin pruriogeneic animal, sample applied immediately before bradykinin; format: in vivo, Hartley-strain male guinea pigs; settings: bradykinin 10 µg/0.1 ml
Description: (§1) Using healthy Hartley-strain male guinea pigs, bradykinin, which is a pruriogeneic substance, was intradermally introduced at the side abdominal part to obtain a pruriogeneic animal.
(§2) The pruriginous behaviors were rated according to the standards shown below, and represented as pruriginous activity.
(§3) For four or six guinea pigs of one group, the above-mentioned behavior observation was conducted by three or more members at the same time for 20 minutes, and the pruriginous activity (score) determined as an average value ± standard deviation of the evaluation scores, and the antripruritic effect judged by the significance difference test with the Vehicle control group according to the Student's T test.
Immediately thereafter, bradykinin 10 µg/0.1 ml was subcutaneously administered at the same applied site, and the score (average value ± standard deviation) of pruriginous activity by pruriginous behaviors was examined by comparison.
As described above in (1), healthy male guinea pigs (weighing 450 - 600 g) depilated at the right abdominal side part by electrical clippers on the previous day were divided into four groups each of four, of which one group was externally applied at the right abdominal side part with only the vehicle for external application (Vehicle control), and other groups with respective preparations of a mixture group of 1.24% by weight of picolinic acid and 2.88% by weight of zinc sulfate corresponding respectively to the picolinic acid amount and the zinc amount of 3% by weight of zinc picolinate, a 2.88% by weight zinc sulfate single substance group and a 3.17% by weight of zinc pyrithione group corresponding to the zinc amount in each 0.1 ml amount. Immediately thereafter, bradykinin 10 µg/0.1 ml was subcutaneously administered at the same applied site, and the score of pruriginous activity by pruriginous behaviors was examined by comparison.

bradykinin = assay: Antipruritic effect test (therapeutical test) of chelated zinc compounds other than zinc picolinate, bradykinin; format: in vivo, guinea pigs; settings: 1% (by weight), 0.1 ml applied 5 minutes after bradykinin 50 µg/0.5 ml intradermal; average score compared with Vehicle control group; 85% or less judged effective
Description: Healthy male guinea pigs (weighing 450 - 600 g) depilated at the right abdominal side part by electrical clippers on the previous day were divided into three groups of 6. At the right abdominal side part was intradermally administered 50 µg/0.5 ml of bradykinin, and 5 minutes later, one group was externally applied at the site where bradykinin had been applied with only the vehicle for external application (Vehicle control), and other groups with each 1% (by weight) concentration of samples in each 0.1 ml amount, and the average value of the scores of antipruritic activity by pruriginous behaviors was examined by comparison with the Vehicle control group.
The antipruritic effect was judged to be effective for an average value of the scores of 85% or less.

plasmin = target: T1, plasmin (Homo sapiens, UniProt P00747); assay: Antiplasmin activity, fibrin plate method; format: biochemical; settings: 50% inhibition of fibrinolytic activity by plasmin; pre-incubation 37°C 30 minutes
T1 construct: purchased Sigma
Description: The antiplasmin active action was determined as the sample amount necessary for a 50% inhibition (IC₅₀: mg/ml) from the inhibition ratio of the fibrinolytic activity by plasmin, by using the fibrin plate method.
A fibrin plate was prepared according to the method of Warren et al. (Hemostasis Vol. 4, page 110, 1975) by dissolving under heating 100 mg of agarose in 5 ml of a 0.01 M phosphate buffer supplemented with 0.15 M sodium chloride, followed by cooling to 50°C. In this solution was dissolved 10 mg of a plasminogen free fibrinogen (Daiichi Kagaku Yakuhin), and after 0.1 ml of a thrombin solution (100 units/ml, Mochida Seiyaku) was dropwise added to the solution, the mixture was immediately poured into a laboratory dish (diameter 9 cm, Terumo) and left to cool, to be thereby solidified. A plasminogen free fibrin plate was prepared. By forming a well 6 mm in diameter at the center of the dish.

pruritus of bradykinin [2] = assay: Antipruritic effect test (therapeutical test), bradykinin pruriogeneic animal, sample applied 5 minutes after bradykinin; format: in vivo, Hartley-strain male guinea pigs; settings: 1 wt.%
Description: as §1, §2, §3
Healthy guinea pigs (weighing 450 - 600 g) depilated at the right abdominal side part on the previous day were divided into three groups of 6.
Using the same test methods as described above, the zinc picolinate preparation and the crotamiton preparation each of 1% concentration were examined by comparison with the Vehicle control group.

[3] = tested on: kallikrein pruriogeneic animal; assay: Antipruritic test of kallikrein pruriogeneic animal (therapeutical test); format: in vivo, Hartley-strain male guinea pigs
Description: There is already known a pruriogeneic substance other than bradyokinin which cannot be inhibited by antihistamines; namely, kallikrein (International Journal of Dermatology, Vol. 14, pages 465 - 484, 1975).
Using healthy Hartley-strain male guinea pigs, bradykinin, which is a pruriogeneic substance, was intradermally administered at the side abdominal part to obtain a pruriogeneic animal.
The pruriginous behaviors were rated according to the standards shown below and represented as pruriginous activity.
as §3, with “For” for “For four or”
Healthy male guinea pigs (weighing 450 - 600 g) depilated at the right abdominal side part by electrical clippers on the previous day were divided into three groups of six.
Using the same test method as in 4-1, animals were divided into four groups of 6.

[4] = tested on: histamine pruriogeneic animal; assay: Antipruritic effect test of histamine pruriogeneic animal (therapeutical test); format: in vivo, Hartley-strain male guinea pigs; settings: Table 10; 3 wt.%, 0.1 ml applied five minutes after histamine 50 µg/0.05 ml intradermal; vehicle control 16.6 ± 0.5
[5] = tested on: rats (Sprague Dawley strain); assay: Acute toxicity tests; format: in vivo
Description: First, the toxicity of the antipruritic agent according to the present invention was examined. Acute toxicity tests were conducted by using healthy 5 to 6 weeks old male and female rats (Sprague Dawley strain). An oral administration was made by suspending zinc picolinate in 20% carboxymethyl cellulose, and a subcutaneous administration was made by suspending zinc picolinate in 10% carboxylmethyl cellulose.

[6] = tested on: skin (Futat skin and Abraded skin); settings: rabbit, in vivo
Description: The test was conducted according to the method of the FDA method (U.S. Food and Drug Administration method).
Eight Japanese White species rabbits weighing 2.3 to 3 kg were depilated at the back by electrical clippers and divided into two groups of four, one group being as such (Futat skin) and the other group having an abrasion made at the testing side (Adraded skin), and were fixed on a fixer. An amount of 0.3 ml of the test substance was applied to the skin by a sticking plaster for an animal test having a lint cloth 25 mm in diameter. After 24 hours, the sticking plaster was removed, and the reaction of the skin evaluated in terms of the degrees of erythema and edema, according to the following standards. The judgement was again performed 72 hours later.
The skin primary irritation evaluation score is shown by an average value obtained by adding average values of a judgement of the formation of erythema and edema after 24 and 72 hours for four rabbits with Futat skin and Abraded skin, and dividing the value by the animal test sample number of 4.
The standards of the evaluation score (average value) of the skin safety is as shown below. Evaluation score less than 2: slight irritation or substantially no irritation Evaluation score of 2 - 5: moderate irritation Evaluation score of 5 or more: strong irritation The results are shown in Table-2.

[7] = Table 7, same test methods as above (therapeutical test, bradykinin), vehicle control 35.4 ± 3.1
[8] = Table 9, 3 wt.%, 0.1 ml applied after kallikrein intradermal, vehicle control 18.68 ± 2.06
[9] = Table 5, 0.1 ml applied 5 minutes after bradykinin 50 µg/0.05 ml intradermal, vehicle control 30.1 ± 3.6

T1 sequence (P00747 581-810 limits assumed, species assumed): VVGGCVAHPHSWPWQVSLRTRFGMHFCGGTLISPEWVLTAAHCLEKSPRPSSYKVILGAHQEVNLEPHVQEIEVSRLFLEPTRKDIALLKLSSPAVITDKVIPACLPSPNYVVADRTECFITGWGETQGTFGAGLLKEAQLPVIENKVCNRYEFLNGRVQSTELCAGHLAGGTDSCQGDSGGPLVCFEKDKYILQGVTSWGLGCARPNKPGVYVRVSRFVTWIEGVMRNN
T1 sequence (P00747 97-580 limits assumed, species assumed): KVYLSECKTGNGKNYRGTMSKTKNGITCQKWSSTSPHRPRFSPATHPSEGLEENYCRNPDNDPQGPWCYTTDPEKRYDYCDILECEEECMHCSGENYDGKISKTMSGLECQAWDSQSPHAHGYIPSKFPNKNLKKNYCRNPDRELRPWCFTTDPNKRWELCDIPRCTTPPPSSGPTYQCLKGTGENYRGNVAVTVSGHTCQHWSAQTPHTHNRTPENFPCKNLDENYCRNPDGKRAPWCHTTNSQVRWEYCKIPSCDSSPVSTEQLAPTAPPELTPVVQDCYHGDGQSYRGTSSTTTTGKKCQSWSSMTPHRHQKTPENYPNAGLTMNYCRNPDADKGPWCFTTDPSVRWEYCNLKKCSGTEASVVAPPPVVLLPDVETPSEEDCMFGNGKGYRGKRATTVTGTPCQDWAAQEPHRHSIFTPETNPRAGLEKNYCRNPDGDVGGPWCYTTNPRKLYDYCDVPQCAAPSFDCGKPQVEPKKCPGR

## zinc sulfate [reference compound]
Pruritus of bradykinin [1]; Table 6, 2.88 wt.%, 0.1 ml, vehicle control 40.1 ± 6.7
  Pruritic activity/20 min.: 33.7 ± 5.2

## zinc 4-chloropicolinate [Compound No. R]
bradykinin
  Pruritic activity score (%): 18.5%

## zinc 4-undecylpicolinate [Compound No. N]
bradykinin
  Pruritic activity score (%): 64.4%

## zinc 6-hexyloxypicolinate [Compound No. K]
bradykinin
  Pruritic activity score (%): 74.8%

## zinc 5-butoxypicolinate [Compound No. G]
bradykinin
  Pruritic activity score (%): 66.2%

## zinc 4-methylpicolinate [Compound No. C]
bradykinin
  Pruritic activity score (%): 74.1%

## zinc 5-propoxypicolinate [Compound No. E]
bradykinin
  Pruritic activity score (%): 81.5%

## zinc 3-methylpicolinate [Compound No. B]
bradykinin
  Pruritic activity score (%): 65.9%

## zinc 4-carboxypicolinate [Compound No. S]
bradykinin
  Pruritic activity score (%): 66.3%

## zinc 3-propoxypicolinate [Compound No. D]
bradykinin
  Pruritic activity score (%): 41.2%

## zinc 6-butoxypicolinate [Compound No. H]
bradykinin
  Pruritic activity score (%): 71.8%

## zinc picolinate N-oxide [Compound No. P]
bradykinin
  Pruritic activity score (%): 85.0%

## zinc 3-undecylpicolinate [Compound No. M]
bradykinin
  Pruritic activity score (%): 70.1%

## CN(C)CCOC(c1ccccc1)c1ccccc1 [Diphenhydramine hydrochloride, reference compound]
plasmin
  IC₅₀: No action at 10 mg/ml

## zinc 6-undecylpicolinate [Compound No. O]
bradykinin
  Pruritic activity score (%): 65.0%

## zinc 3-hydroxypicolinate
bradykinin
  Pruritic activity score (%): 58.0%

## zinc 3-hexyloxypicolinate [J]
bradykinin
  Pruritic activity score (%): 75.7%

## CC=CC(=O)N(CC)c1ccccc1C [Crotamiton, reference compound]
Pruritus of bradykinin [2]; [7]
  Pruritic activity/20 min.: 29.3 ± 3.3
[3]; [8]
  Pruritic activity/20 min.: 15.15 ± 1.92
[4]
  Pruritic activity/20 min.: 18.9 ± 2.5

## CN(C)CCOC(c1ccccc1)c1ccccc1 [Diphenhydramine, reference compound]
Pruritus of bradykinin [1]; Table 4, 1 wt.%, 0.1 ml external, mean ± SD, vehicle control 45.7 ± 5.7
  Pruritic activity/20 min.: 36.9 ± 3.0
Pruritus of bradykinin [2]; [9]
  Pruritic activity/20 min.: 27.9 ± 2.0
[3]; [8]
  Pruritic activity/20 min.: 17.00 ± 1.26
[4]
  Pruritic activity/20 min.: 12.4 ± 0.5

## zinc 4-t-butylpicolinate [Compound No. I]
bradykinin
  Pruritic activity score (%): 63.3%

## zinc picolinate
[5]; Female rats, Oral
  LD₅₀ value: >2000 mg/kg
[5]; Female rats, Oral, dose 200 mg/kg, suspended in 20% carboxymethyl cellulose
  Lethality: 0/5
[5]; Female rats, Subcutaneous, dose 70 mg/kg
  Lethality: 0/5
[5]; Female rats, Subcutaneous, dose 91 mg/kg
  Lethality: 0/5
[5]; Female rats, Subcutaneous, dose 118 mg/kg
  Lethality: 2/5
[5]; Female rats, Subcutaneous, dose 154 mg/kg
  Lethality: 5/5
[5]; Female rats, Subcutaneous, dose 200 mg/kg
  Lethality: 5/5
[5]; Female rats, Subcutaneous, suspended in 10% carboxylmethyl cellulose
  LD₅₀ value: 122 mg/kg
[5]; Male rats, Oral
  LD₅₀ value: >2000 mg/kg
[5]; Male rats, Oral, dose 200 mg/kg, suspended in 20% carboxymethyl cellulose
  Lethality: 0/5
[5]; Male rats, Subcutaneous, dose 70 mg/kg
  Lethality: 0/5
[5]; Male rats, Subcutaneous, dose 91 mg/kg
  Lethality: 1/5
[5]; Male rats, Subcutaneous, dose 118 mg/kg
  Lethality: 2/5
[5]; Male rats, Subcutaneous, dose 154 mg/kg
  Lethality: 4/5
[5]; Male rats, Subcutaneous, dose 200 mg/kg
  Lethality: 5/5
[5]; Male rats, Subcutaneous, suspended in 10% carboxylmethyl cellulose
  LD₅₀ value: 121 mg/kg
plasmin
  IC₅₀: 2.3 mg/mL
Pruritus of bradykinin [1]; Table 4, 0.01 wt.%, 0.1 ml external, mean ± SD, vehicle control 45.7 ± 5.7
  Pruritic activity/20 min.: 17.5 ± 2.4
Pruritus of bradykinin [1]; Table 4, 10 wt.%, 0.1 ml external, mean ± SD, vehicle control 45.7 ± 5.7
  Pruritic activity/20 min.: 15.5 ± 1.6
Pruritus of bradykinin [1]; Table 6, 3 wt.%, 0.1 ml, vehicle control 40.1 ± 6.7
  Pruritic activity/20 min.: 17.7 ± 1.4^*1
Pruritus of bradykinin [2]; [9]
  Pruritic activity/20 min.: 14.9 ± 0.3
Pruritus of bradykinin [2]; [7]
  Pruritic activity/20 min.: 12.7 ± 0.7
[3]; Table 8, 0.01 wt.%, 0.1 ml applied five minutes after kallikrein 25 units/0.05 ml intradermal, vehicle control 19.95 ± 2.41
  Pruritic activity/20 min.: 12.95 ± 0.95
[3]; Table 8, 10 wt.%, 0.1 ml applied five minutes after kallikrein 25 units/0.05 ml intradermal, vehicle control 19.95 ± 2.41
  Pruritic activity/20 min.: 12.85 ± 0.70
[3]; [8]
  Pruritic activity/20 min.: 12.95 ± 0.95
[4]
  Pruritic activity/20 min.: 7.4 ± 0.5
[6]
  Skin primary irritation evaluation score: 1.6
other
  amount soluble in water as such: ≤ 0.5 % by weight

## zinc 5-(2-ethylhexyloxy)picolinate [Compound No. L]
bradykinin
  Pruritic activity score (%): 60.3%

## zinc 4-nitropicolinate [Compound No. Q]
bradykinin
  Pruritic activity score (%): 58.3%

## zinc pyrithione [reference compound]
Pruritus of bradykinin [1]; Table 6, 3.17 wt.%, 0.1 ml, vehicle control 40.1 ± 6.7
  Pruritic activity/20 min.: 43.4 ± 6.4
